Measured values: patent publication US20210145716A9, “COMPOSITION FOR HAIR FRIZZ REDUCTION” (The Procter & Gamble Company, priority 2015, published 2021)

Assay: Expert rating of hair switches for frizz, clean feel and greasy feel
Settings: 1% in ethanol/water leave-on, pH 4.2
Experimental: Additional leave-on treatment compositions are prepared (Tables 1 and 2) according to the procedure described above, which are used to treat hair switches using the procedure described above (amount of 0.10 g of composition per g of hair). The switch is kept at high humidity (above 85%) for 2 hours. Then, ten experts are asked to rate each hair switch in terms of frizz, clean feel, and greasy feel, based on a 5 point scale, 5 being the highest and 1 being the lowest rating. Acceptable values are: • For frizz, less than 2 (lower number corresponds to less frizz); • For no greasy feel less than 3, (lower number corresponds to less greasy feel), and • For clean feel greater than 3 (higher number corresponds to cleaner feel).

**Q.** Which “Hair switch rating summary (in words)” value does the source give for `CC(C)CCCCCCCCCCCCCCCOC(=O)CCCCCCCCCCCCCCC(C)C` [Isostearyl isostearate] here?
**A.** frizz protection with clean feel and without greasy feel negative

**Q.** Which “Hair switch rating summary (in words)” value does the source give for `O=C(O)c1ccccc1O` [Salicylic acid] here?
**A.** fizz protection with clean feel and without greasy feel negative

**Q.** Which “Hair switch rating summary (in words)” value does the source give for `O=C(O)c1cc(Cl)ccc1O` [5-Chlorosalicylic acid] here?
**A.** fizz protection with clean feel and without greasy feel negative

**Q.** For `CCCCCCCCC(CO)CCCCCC` (stereo not shown) [2-Hexyl-1-decanol], which “Hair switch rating summary (in words)” value is on record?
**A.** frizz protection with clean feel and without greasy feel negative

**Q.** For `O=C(O)c1ccc(O)cc1O` [2,4-Dihydroxybenzoic acid], which “Hair switch rating summary (in words)” value is on record?
**A.** fizz protection with clean feel and without greasy feel negative

**Q.** For `O=S(=O)(O)c1ccc(O)cc1` [4-Hydroxybenzenesulphonic acid], which “Hair switch rating summary (in words)” value is on record?
**A.** fizz protection with clean feel and without greasy feel negative

**Q.** With `O=C(OCCO)c1ccccc1O` [2-Hydroxyethyl salicylate] as the molecule, how does the “Hair switch rating summary (in words)” value read?
**A.** frizz protection with clean feel and without greasy feel negative
